Test results as given in BindingDB's records for PubMed 11408610 (Virginia Commonwealth University, 2001).

biological target: Cannabinoid receptor 1 (Rattus norvegicus, UniProt P20272)
Sequence (P20272 whole entry): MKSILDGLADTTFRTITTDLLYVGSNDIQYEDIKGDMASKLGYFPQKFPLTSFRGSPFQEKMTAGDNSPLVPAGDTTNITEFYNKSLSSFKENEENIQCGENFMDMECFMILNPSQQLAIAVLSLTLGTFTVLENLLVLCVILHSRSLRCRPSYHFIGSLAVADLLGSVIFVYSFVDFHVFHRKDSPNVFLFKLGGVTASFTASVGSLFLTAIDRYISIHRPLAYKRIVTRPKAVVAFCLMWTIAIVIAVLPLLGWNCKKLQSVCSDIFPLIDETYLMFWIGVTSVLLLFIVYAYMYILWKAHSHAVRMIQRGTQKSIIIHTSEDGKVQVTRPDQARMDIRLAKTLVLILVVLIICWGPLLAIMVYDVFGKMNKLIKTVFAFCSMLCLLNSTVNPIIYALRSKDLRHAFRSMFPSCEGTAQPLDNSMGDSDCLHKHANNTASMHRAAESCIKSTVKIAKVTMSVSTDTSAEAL

| Structure (SMILES) | Ki [nM] |
| --- | --- |
| CCCn1ccc(C(=O)c2cccc3ccccc23)c1 [JWH-032] | > 10000 |
| CCCCCc1cc(O)c2c(c1)OC(C)(C)c1ccc(C)cc1-2 [6,6,9-Trimethyl-3-pentyl-6H-benzo[c]chromen-1-ol(Cannabinol)] | 308 |
| CCCCC/C=C/C/C=C/C/C=C/C/C=C/CCC(C)C(=O)NCCF (configuration not stated) [(5Z,8Z,11Z,14Z)-N-(2-Fluoroethyl)-2-methyl-5,8,11,14-icosatetrenamide] | 5.7 |
| CCCCCCC(C)(C)c1cc(O)c2c(c1)OC(C)(C)[C@@H]1CC=C(CO)CC21 (stereo partly drawn) [(R)-3-(1,1-Dimethyl-heptyl)-9-hydroxymethyl-6,6-dimethyl-6a,7,10,10a-tetrahydro-6H-benzo[c]chromen-1-ol] | 0.73 |
| CCCCC/C=C/C/C=C/C/C=C/C/C=C/CCC(C)(C)C(=O)NCCO [2-dimethyl-anandamide] | 47 |
| CCCCC/C=C/C/C=C/C/C=C/C/C=C/CCC(C)C(=O)NCCO (configuration not stated) [(5Z,8Z,11Z,14Z)-2-Methyl-N-(2-hydroxyethyl)-5,8,11,14-icosatetrenamide] | 53 |
| CCCCCCn1ccc(C(=O)c2cccc3ccccc23)c1 [CAS_162934-74-9] | 399 |
| CCCCCn1ccc(C(=O)c2cccc3ccccc23)c1 | 87 |
| Cn1ccc(C(=O)c2cccc3ccccc23)c1 [JWH-044] | > 10000 |
| CCCCCCCn1ccc(C(=O)c2cccc3ccccc23)c1 [JWH-036] | 309 |
| CCCCn1cc(C(=O)c2cccc3ccccc23)c2ccccc21 [1-Naphthyl(1-butyl-1H-indole-3-yl)methanone] | 8.9 |
| CCn1ccc(C(=O)c2cccc3ccccc23)c1 [JWH-045] | > 10000 |
